Results on three molecules are retold here after US8242152B2, “Use of 4-[(4-thiazolyl)phenoxy]alkoxy-benzamidine derivatives for the prophylaxis and treatment of osteoporosis” (Dong Wha Pharmaceutical Co., Ltd., priority 2001, dated 2012).

One may read the IC50 as the concentration that inhibits the measured activity by half. Read a low IC50 as inhibition by little substance.

The subject of experiment [1] is osteoclast fusion. The experiment is described as follows: Fusion assay of prefusion osteoclasts (Example 2). Type of experiment: cell-based, mice. The following applies: Mus musculus, Osteoclast, 24 hrs; for inhibition at 0.08 µM / inhibition at 0.4 µM / inhibition at 2 µM / inhibition at 10 µM: read-out: Inhibitory action (%). An excerpt: This assay is designed to evaluate the influences of each test substance in terms of osteoclast fusion during the differentiation process in which immature prefusion osteoclasts (pOC; osteoclast structure with one more nuclei) were transformed into mature multinucleated osteoclast (OCL) via cell to cell fusion (Gregg Wesolowski et al. Experimental Cell Research 219,679-686, 1995).
The prefusion osteoclast can be obtained via co-culture of both bone marrow cells and osteoblast, as prepared from Example 1. The mixture of both osteoblast (about 5×10^5 cells/plate) and bone marrow cells (about 1×10^7 cells/plate) were co-cultured in a 100 mm culture dish. Some differentiation factors, such as dexamethasone (10^−6M) and vitamin D3 (10^−9M), were added to the medium from the first day of culture. The medium was changed with a fresh medium containing differentiation factors every 2 days.
Since a great number of the prefusion osteoclasts having one or more nuclei in fusion process were formed during 4-day co-culture, the cells were separated and co-cultivation after 4 days. The medium was removed from the cells and with the addition of 0.2% collagenase solution (4 mL), the cells were incubated at 37° C. for 20 mins to separate the attachment cells. Since the majority of separated cells were osteoblasts, all osteoblasts were washed with PBS solution two or three times for their complete removal.
After the remaining prefusion osteoclasts were separated via reaction for 20 mins with the addition of echistatin containing 10% BSA, the cells were harvested by centrifuge.
The test substances diluted at each concentration were diluted at the desired concentration in α-MEM medium (addition of 10% FBS) to load them into a 96-well microplate in a dose of 100 uL per well. The osteoclastic monocytes, so separated from the preceding No. 1, were plated on a 96-well microplate in a dose of 5×10^3 cell/100 uL per well and cultured at 37° C. for 24 hrs, thus successfully resulting in the osteoclast fusion. In the case of specimen-free and positive controls, experiments were performed in the same manner as above.
The medium was removed from the cells and then the cells were washed once with PBS and fixed to a PBS solution containing 10% formalin for about 5 mins. The cells were again fixed to both ethanol and acetone (1/1) in a mixing solution for about 5 mins and dried off. The cells were further treated by TRAP staining solution for 15 mins and washed with water to observe the cells under the microscope. The TRAP-positive osteoclast counts, which were differentiated from monocyte to multinucleated cells (osteoclast having more than 10 nuclei) via fusion process, were measured.

The subject of experiment [2] is osteoclast differentiation. The experiment is described as follows: Osteoclast differentiation, co-culture, TRAP(+)MNCs (Example 5). Format: cell-based, mice. The following applies: for inhibition at 0.01 µM / inhibition at 0.1 µM / inhibition at 1 µM: Mus musculus, Osteoclast, 144 h, day 6, read-out: % inhibitory action. How it is done: To investigate the effect of compounds on osteoclast differentiation, co-culture between bone marrow cells (2.5×10^5 cells/cm^2) and calvaria-derived osteoblastic cells (4×10^4 cells/cm^2) was conducted in the presence of 1.25(OH)2D3(10^−8 M) and dexamethasone (10^−7 M) with α-MEM containing 10% FBS (referred as “osteoclastic medium”). Bone marrow cells were isolated from the femora of 6-week-old ddY mice and primary osteoblastic cells were isolated from the calvariae of newborn ICR mice by sequential digestion with 0.2% collagenase. The medium was changed every two days with fresh osteoclastic medium. An index of osteoclast formation was determined by counting TRAP-positive multinucleated osteoclasts (TRAP(+)MNCs). On day 6, the cells were fixed with 10% formaldehyde and stained for TRAP. The number of TRAP(+) MNCs containing more than 6-7 nuclei was counted under a microscope (ZEISS Axiovert 25, Switzerland). The results are shown as the relative inhibitory activity (% inhibition) compared to the control group.

The test system of experiment [3] is osteoclast fusion. Description: Osteoclast fusion assay with purified prefusion osteoclasts (Example 5). Format: cell-based, mice. The following applies: for inhibition at 0.08 µM / inhibition at 0.4 µM / inhibition at 2 µM / inhibition at 10 µM: read-out: Inhibitory action (%). How it is done:
The effect of the compounds on the fusion of osteoclasts was examined using purified prefusion osteoclasts (pOC, mononuclear and binuclear osteoclasts). Co-cultures of bone marrow cells (2×10^7 cells/dish) and newborn mice calvariae (1×10^6 cells/dish) were maintained in 100-mm-diameter dishes for 4 days with osteoclast differontiarion factor. Cultures were washed twice with PBS and treated with 0.1% collagenase/dispase at 37° C. for 20 minutes. Released cells, mostly osteoblasts, were removed with a pipet and the plates were washed three times with PBS. The remaining cells were incubated with 30 uM echistatin in α-MEM containing 1% BSA for 20 min at 37° C. These cells were collected, pelleted, and washed once with α-MEM containing 10% FBS. The cells released by this treatment were the subject of the fusion assay. More than 90% of the cells in the pOCs preparation used in the present study were positive for TRAP.
pOCs (15,000 cells/well) were plated on 96 well culture plates with or without various compounds. After culture for 18 hours, the cells were fixed and stained for TRAP.

Experiment [4] deals with osteoclast activity (resorption pits). Description: Bone resorption pit formation assay on dentine slice (Example 5). Type of experiment: cell-based, mice. The following applies: for inhibition at 0.01 µM / inhibition at 0.1 µM / inhibition at 1 µM: Mus musculus, Osteoclast, dentine slice, 24 h, read-out: Inhibitory activity (%). As for the experimental part: Method for evaluating the effects of the compounds on osteoclast activity: Multinucleated osteoclasts were developed on collagen gel plates by co-culture system as described. On day 6-8 of the co-culture, multinucleated OCLs were detached from plates by 0.2% collagenase treatment (“crude OCLs”). Crude OCLs suspended in α-MEM containing 10% FBS were placed on a dentine slice (4 mm diameter) in a 96-well culture plate. […] At the end of the incubation, cells were removed by 1 M NH4OH treatment and resorption pits formed (in the slices stained with Mayer's hematoxylin). Resorption pits were enumerated with an image analyzer and compared to the control group.

The subject of experiment [5] is Primary osteoblastic cells. The experiment is described as follows: ALP activity in primary osteoblastic cells (Example 5). Format: cell-based, ICR mice. The following applies: 3 days. How it is done: Primary osteoblastic cells isolated from the calvariae of newborn ICR mice were grown to confluence in α-MEM containing 10% FBS. These cells were plated at a density of 1×10^5/ml in tissue culture dishes. After 24 h, cells were changed with a differentiation medium containing ascorbic acid (50 ug/ml) and β-glycerophosphate (10 mM) with or without the compounds and further cultured for 3 days. Cells were washed twice with PBS and harvested. For the measurement of ALP activity and total protein content, cells were extracted into 0.1% Triton X-100 in PBS containing 1 mM MgCl2 and centrifuged at 1.000×g for 5 minutes. Enzyme activity was determined in supernatants by colorimetric procedure using p-nitrophenyl phosphate (PNP) as a substrate at a wavelength of 405 nm and the protein content was determined by a Bio-Rad protein assay kit. The ALP unit was expressed as nmol PNP/ug protein/min.

For experiment [6], the target named is LTB4 receptor (Homo sapiens, UniProt Q15722). Also on record: endogenous in cells; host or cells: human neutrophils (PMN) purified from fresh blood. The following applies: cited from earlier work.
Chain of LTB4 receptor (Q15722 whole entry): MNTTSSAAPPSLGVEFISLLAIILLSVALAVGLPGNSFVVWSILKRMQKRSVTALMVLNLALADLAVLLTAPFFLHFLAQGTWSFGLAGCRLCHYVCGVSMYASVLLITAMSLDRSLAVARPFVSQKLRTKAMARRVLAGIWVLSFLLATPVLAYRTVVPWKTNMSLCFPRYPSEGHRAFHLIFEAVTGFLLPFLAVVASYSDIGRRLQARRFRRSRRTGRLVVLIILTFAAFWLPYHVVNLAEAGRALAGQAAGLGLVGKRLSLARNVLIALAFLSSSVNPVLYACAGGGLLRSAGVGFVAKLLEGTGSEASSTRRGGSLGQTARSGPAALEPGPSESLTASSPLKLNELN
Setting [7] is: Mus musculus, Osteoclast, 18 hours.

Structures are written as SMILES. Like-named read-outs stand apart in the source and are kept apart here.

`Cc1nc(-c2ccc(OCCCCOc3ccc(C(=N)N)cc3)cc2)c(C(C)C)s1` [DW1351, 4-{4-[4-(5-isopropyl-2-methyl-1,3-thiazol-4-yl)phenoxy]butoxy}-benzamidine]: in experiment [1], the inhibition at 0.08 µM was 0%, the inhibition at 0.4 µM is 0%, the inhibition at 2 µM came to 38% and the inhibition at 10 µM stood at 74%. For the same molecule, in experiment [2], the inhibition at 0.01 µM stood at 23%, the inhibition at 0.1 µM amounted to 30.6% and the inhibition at 1 µM came to 61.5%. For the same molecule, in experiment [3] (setting [7]), the inhibition at 0.08 µM stood at 0%, the inhibition at 0.4 µM turned out to be 0%, the inhibition at 2 µM was 38% and the inhibition at 10 µM was found to be 74%. In experiment [4], the inhibition at 0.01 µM stood at 2.1%, the inhibition at 0.1 µM was 26.7% and the inhibition at 1 µM was found to be 51.8%. Moreover, in experiment [5] (0.01 uM), the “ALP activity (% of control)” value was 122.5 % of control and the “ALP activity (Unit)” value is recorded as 20.8 nmol PNP/ug protein/min. For the same molecule, in experiment [5] (0.1 uM), the “ALP activity (% of control)” value is recorded as 121.2 % of control and the “ALP activity (Unit)” value was determined as 21.0 nmol PNP/ug protein/min. The “Inhibition (%) of LTB4 receptor binding” value in experiment [6] (100 nM) is reported as 89%. The “Inhibition (%) of LTB4 receptor binding” value in experiment [6] (1 uM) was 100%.
As for `Cc1nc(-c2ccc(OCCCCCOc3ccc(C(=N)N)cc3)cc2)c(C(C)C)s1` [DW1352, 4-{5-[4-(5-isopropyl-2-methyl-1,3-thiazol-4-yl)phenoxy]pentoxy}-benzamidine], in experiment [1], the inhibition at 0.08 µM came out at 5.13%, the inhibition at 0.4 µM turned out to be 24.7%, the inhibition at 2 µM is 87.2% and the inhibition at 10 µM was 99%. The same molecule returned an IC50 in experiment [1] of 740 nM. Moreover, in experiment [2], the inhibition at 0.01 µM was 27.1%, the inhibition at 0.1 µM came out at 41.3% and the inhibition at 1 µM stood at 80.9%. Besides, in experiment [2] (versus DW1351, Table 8), the “times stronger inhibition of osteoclast differentiation than DW1351” value is recorded as “about 1.35 times”. In addition, in experiment [3] (setting [7]), the inhibition at 0.08 µM was 5.13%, the inhibition at 0.4 µM was 24.7%, the inhibition at 2 µM is 87.2% and the inhibition at 10 µM amounted to 99%. For the same molecule, the IC50 in experiment [3] (setting [7]) was found to be 740 nM. The “times more inhibition of osteoclast fusion than DW1351” value in experiment [3] (versus DW1351) is on record as 2.3 times. Also, in experiment [4], the inhibition at 0.01 µM is 21.7%, the inhibition at 0.1 µM is 36% and the inhibition at 1 µM worked out at 64.1%. In addition, the “times more inhibition of osteoclast activity than DW1351” value in experiment [4] (versus DW1351, Table 10) is “about 1.35 times”. Also, in experiment [5] (0.01 uM), the “ALP activity (% of control)” value was 113.0 % of control and the “ALP activity (Unit)” value was found to be 19.2 nmol PNP/ug protein/min. Also, in experiment [5] (0.1 uM), the “ALP activity (% of control)” value was 111.7 % of control and the “ALP activity (Unit)” value came out at 19.1 nmol PNP/ug protein/min. Besides, the “Inhibition (%) of LTB4 receptor binding” value in experiment [6] (100 nM) is 88%. The “Inhibition (%) of LTB4 receptor binding” value in experiment [6] (1 uM) is 100%.
Turning to `COc1cc(C(=O)N(C(C)C)C(C)C)ccc1OCCCCOc1ccc2c(N)noc2c1` [HS1141, N,N-diisopropyl-4-[4-(3-aminobenzo[d]isooxazole-6-yloxy)butoxy]-3-methoxybenzamide], in experiment [1], the inhibition at 0.08 µM is 2.1%, the inhibition at 0.4 µM turned out to be 12.3%, the inhibition at 2 µM stood at 15.7% and the inhibition at 10 µM stood at 36.3%. Further, in experiment [2], the inhibition at 0.01 µM came out at 11.4%, the inhibition at 0.1 µM worked out at 36.4% and the inhibition at 1 µM is 72.9%. Further, in experiment [3] (setting [7]), the inhibition at 0.08 µM is 2.1%, the inhibition at 0.4 µM was found to be 12.3%, the inhibition at 2 µM is 15.7% and the inhibition at 10 µM stood at 36.3%. For the same molecule, in experiment [4], the inhibition at 0.01 µM is 8.2%, the inhibition at 0.1 µM is 22.7% and the inhibition at 1 µM is 52.7%. In addition, in experiment [5] (0.01 uM), the “ALP activity (% of control)” value is recorded as 117.3 % of control and the “ALP activity (Unit)” value is given as 19.9 nmol PNP/ug protein/min. In experiment [5] (0.1 uM), the “ALP activity (% of control)” value was 120.9 % of control and the “ALP activity (Unit)” value is given as 21.0 nmol PNP/ug protein/min. Also, the “Inhibition (%) of LTB4 receptor binding” value in experiment [6] (1 uM) is 100%.
